In PubChem BioAssay (NCI) one finds GI50 and TGI data, which are given here for 14 compounds.

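Following 48 hours of exposure in 96-well plates, responses at five concentrations were used to interpolate endpoints linearly. GI50: concentration for 50% inhibition of growth. TGI marks complete inhibition of growth.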

Some test systems named below: UACC-257 melanoma; OVCAR-4 ovarian; HL-60(TB) leukemia; IGROV1 ovarian; KM12 colon; HOP-62 NSCLC; SNB-75 CNS; NCI-H460 lung; MDA-MB-231 breast.
Holding throughout (test): NCI anticancer screen, dose series, 48 h

On to `C[CH2][Ge]([CH2]C)([CH2]C)[O]C(=O)C([O][Ge]([CH2]C)([CH2]C)[CH2]C)c1ccccc1` (stereo not given), for which the GI50 with UACC-257 melanoma is 15.2 µM; in the assay with OVCAR-4 ovarian, 6.36 µM; with HL-60(TB) leukemia, 14.7 µM; in the assay on IGROV1 ovarian, 29.1 µM; in the assay with KM12 colon, 11.9 µM; in the assay on HOP-62 NSCLC it was 19.5 µM. For the same compound, the GI50 was 18.3 µM with SNB-75 CNS and 16.3 µM in the assay with NCI-H460 lung. Besides, the TGI in the assay on UACC-257 melanoma was 58.4 µM; in the assay with OVCAR-4 ovarian, > 100 µM; with HL-60(TB) leukemia it was 38.9 µM; with IGROV1 ovarian it was > 100 µM; in the assay on KM12 colon, 26.1 µM; in the assay on HOP-62 NSCLC it was 42.8 µM. The figures for the TGI in the assay on SNB-75 CNS and with NCI-H460 lung were 62.7 µM and > 100 µM, respectively.

On to `O=C([CH-]C(=O)c1ccccc1)c1ccccc1.[CH3-].[CH3-].[CH3-].[Sn+4]`, for which the GI50 in the assay on UACC-257 melanoma was 22.2 µM; in the assay on OVCAR-4 ovarian, 8.81 µM; in the assay on HL-60(TB) leukemia, 2.67 µM; in the assay on IGROV1 ovarian it was 33.1 µM; with KM12 colon, 18.1 µM; in the assay on HOP-62 NSCLC, 22.9 µM. The GI50 in the assay on SNB-75 CNS is 19.4 µM; in the assay with NCI-H460 lung, 6.89 µM. Further, the TGI with UACC-257 melanoma was 60.8 µM; with OVCAR-4 ovarian, 56.1 µM; in the assay with HL-60(TB) leukemia, 16 µM; with IGROV1 ovarian, > 100 µM; with KM12 colon it was > 100 µM; in the assay with HOP-62 NSCLC it was 94.9 µM. Moreover, the TGI with SNB-75 CNS and in the assay with NCI-H460 lung was > 100 µM throughout.

As to `CCP(C)(C)=O`, the TGI in the assay with UACC-257 melanoma, in the assay with OVCAR-4 ovarian, with IGROV1 ovarian, with KM12 colon, in the assay on HOP-62 NSCLC and in the assay on SNB-75 CNS was > 100 µM throughout. Besides, the TGI in the assay on NCI-H460 lung was > 100 µM.

In the case of `CC1(C)Cc2nnsc2C2=C1C(=O)CCS2`, the TGI in the assay on UACC-257 melanoma, in the assay on OVCAR-4 ovarian, in the assay with HL-60(TB) leukemia, with IGROV1 ovarian, with KM12 colon and with HOP-62 NSCLC was > 100 µM throughout. Besides, the TGI in the assay on SNB-75 CNS and in the assay on NCI-H460 lung was > 100 µM throughout.

Turning to `C/C=C/C=C/CCCCCCCCCCCCC[C@]1(OC)C=CC(CC(=O)OC)OO1` (stereo not given in full), the TGI was 45.6 µM in the assay on UACC-257 melanoma; 25.9 µM in the assay with OVCAR-4 ovarian; 20 µM with IGROV1 ovarian; 36.3 µM with KM12 colon; > 100 µM in the assay with HOP-62 NSCLC; 31.2 µM with SNB-75 CNS. For the same compound, in the assay with NCI-H460 lung, the TGI is 46.8 µM. For the same compound, the GI50 with OVCAR-4 ovarian was 12.5 µM; in the assay with IGROV1 ovarian, 5.61 µM; in the assay on KM12 colon it was 17.9 µM; with HOP-62 NSCLC it was 43.9 µM.

On to `CCOC(=O)C1=C(c2ccccc2)NC(c2ccccc2)=C(C(=O)OCC)c2c1c(=O)cc[nH]c2=O`, for which the TGI with UACC-257 melanoma, in the assay with OVCAR-4 ovarian, in the assay with HL-60(TB) leukemia, in the assay with IGROV1 ovarian, in the assay on KM12 colon and in the assay on HOP-62 NSCLC was > 100 µM throughout. Moreover, the TGI with SNB-75 CNS and with NCI-H460 lung was > 100 µM in each case.

With `NCCn1cnc2nc(NC(=O)c3ccccc3)[nH]c(=O)c21`, the TGI with UACC-257 melanoma, with HL-60(TB) leukemia, in the assay on IGROV1 ovarian, in the assay with KM12 colon, with HOP-62 NSCLC and with SNB-75 CNS was > 100 µM each time. Moreover, the TGI in the assay on NCI-H460 lung is > 100 µM.

With `Cc1ccccc1NC(=O)C(=O)CC(=O)C1CCOC1=O` (stereo not given), the TGI with UACC-257 melanoma, with OVCAR-4 ovarian, with HL-60(TB) leukemia, with IGROV1 ovarian, in the assay with KM12 colon and in the assay on HOP-62 NSCLC was > 100 µM each time. Also, the TGI with SNB-75 CNS and in the assay with NCI-H460 lung was > 100 µM in each case.

As to `Cc1cccc(C)c1NC(=O)CCCC(=O)C(C#N)c1ccc(Cl)cc1` (stereo not given), the TGI with UACC-257 melanoma, in the assay on OVCAR-4 ovarian, in the assay with HL-60(TB) leukemia, with IGROV1 ovarian, in the assay with KM12 colon and in the assay with HOP-62 NSCLC was > 100 µM throughout. The TGI with SNB-75 CNS and in the assay with NCI-H460 lung was > 100 µM in each case.

Consider `COc1ccc(/C(=C\c2cc(OC)c(OC)c(OC)c2)C(=O)O)cc1`, for which the TGI was > 100 µM in the assay on UACC-257 melanoma; > 100 µM in the assay with OVCAR-4 ovarian; 72.3 µM in the assay on HL-60(TB) leukemia; > 100 µM with IGROV1 ovarian; 85.6 µM in the assay with KM12 colon; > 100 µM in the assay with HOP-62 NSCLC. For the same compound, the TGI is 75.1 µM in the assay with SNB-75 CNS and > 100 µM in the assay on NCI-H460 lung.

In the case of `COc1ccc(C(=O)C/C(=N/NC(N)=S)C(=O)Nc2ccccc2)cc1`, the TGI with UACC-257 melanoma, in the assay on OVCAR-4 ovarian, in the assay with HL-60(TB) leukemia, with IGROV1 ovarian, in the assay with KM12 colon and in the assay on SNB-75 CNS was > 100 µM each time. For the same compound, in the assay on NCI-H460 lung, the TGI was > 100 µM.

As to `CCOC(=O)C1=C(C)N(NC(=O)OC)C2(N)N(NC(=O)OC)C(C)=C(C(=O)OCC)C12C#N` (stereo not given), the TGI with UACC-257 melanoma, in the assay with OVCAR-4 ovarian, in the assay on HL-60(TB) leukemia, with IGROV1 ovarian, in the assay on KM12 colon and in the assay on HOP-62 NSCLC was > 100 µM each time. Moreover, the TGI with SNB-75 CNS and in the assay on NCI-H460 lung was > 100 µM each time.

With `Cc1cc(Cl)ccc1N1C(=O)C(=O)C(c2nc3ccccc3o2)C(=O)C1=O`, the TGI with UACC-257 melanoma, in the assay on OVCAR-4 ovarian, with HL-60(TB) leukemia, with IGROV1 ovarian, with KM12 colon and with HOP-62 NSCLC was > 100 µM each time. The TGI in the assay on SNB-75 CNS and in the assay on NCI-H460 lung was > 100 µM in each case.

With `O=C1c2ccccc2C(=O)c2sc(Nc3ccc(Cl)cc3)nc21`, the TGI in the assay on UACC-257 melanoma amounted to 3.28 µM; with OVCAR-4 ovarian it was 4.12 µM; in the assay with MDA-MB-231 breast, 7.38 µM; in the assay with HL-60(TB) leukemia, 1.05 µM; with IGROV1 ovarian, 6.9 µM; in the assay with KM12 colon, 5.03 µM. The TGI in the assay with HOP-62 NSCLC came out at 9.26 µM; in the assay on SNB-75 CNS it was 12.7 µM; in the assay with NCI-H460 lung, 11.7 µM. In the assay on MDA-MB-231 breast, the GI50 was 1.17 µM.
